The record followed here is BindingDB's records for doi:10.1016/S0960-894X(01)81027-1 (1993).

Where a name gives a salt, the structure may show the parent alone.

This assay deals with Sigma non-opioid intracellular receptor 1 (Cavia porcellus) (UniProt Q60492). The assay is described as follows: The compound was evaluated for binding affinity against sigma receptor using [3H]DTG radioligand in guinea pig membranes.

For orientation: IC50 means the concentration needed to halve the response being measured. Lower therefore signals greater potency in that assay.

Chain of Sigma non-opioid intracellular receptor 1 (Cavia porcellus) (Q60492 whole entry, looked up): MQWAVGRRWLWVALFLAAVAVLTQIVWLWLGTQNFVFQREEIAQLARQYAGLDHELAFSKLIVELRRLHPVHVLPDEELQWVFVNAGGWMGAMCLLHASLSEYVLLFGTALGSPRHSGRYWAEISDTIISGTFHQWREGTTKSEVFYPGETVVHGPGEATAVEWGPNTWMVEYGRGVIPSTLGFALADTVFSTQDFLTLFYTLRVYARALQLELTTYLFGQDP

Molecule `CC(=NC12CC3CC(CC(C3)C1)C2)NC12CC3CC(CC(C3)C1)C2` [N,N'-Di-adamantan-1-yl-acetamidine] yielded an IC50 of 16 nM.

`CC(=Nc1ccccc1C)NC1CCCCC1` [N-Cyclohexyl-N'-o-tolyl-acetamidine; hydrochloride]: the IC50 is 9 nM.

`CC(=Nc1ccccc1C)NC1CC2CCC1C2` (configuration not stated) [N-Bicyclo[2.2.1]hept-2-yl-N'-o-tolyl-acetamidine] yielded an IC50 of 9 nM.

`CC(=Nc1ccccc1C)Nc1ccccc1C` [N,N'-Di-o-tolyl-acetamidine; hydrochloride] gave an IC50 of 15 nM.

Consider `CC(=Nc1ccc(Br)cc1C)Nc1ccc(Br)cc1C` [N,N'-Bis-(4-bromo-2-methyl-phenyl)-acetamidine], for which the IC50 was 26 nM.

`CC(=Nc1ccccc1C)NC12CC3CC(CC(C3)C1)C2` [N-Adamantan-1-yl-N'-o-tolyl-acetamidine; hydrochloride]: the half-maximal inhibitory concentration (IC50) is 6 nM.

In turn, `CC(=NC12CC3CC(CC(C3)C1)C2)NC1CCCCC1` [N-Adamantan-1-yl-N'-cyclohexyl-acetamidine] yielded a half-inhibitory concentration (IC50) of 72 nM.
